Results taken from patent publication US7812170B2, “Insecticides” (Syngenta Crop Protection, Inc., priority 2004, dated 2010).

Experiments:
Assay type in all cases: in vivo
Diabrotica balteata = assay: Activity against Diabrotica balteata (sprayed maize seedlings); conditions: 144 h, 400 ppm active ingredient, 2nd instar larvae, 6 days, read-out: percentage reduction in the population (% activity)
Procedure: Activity Against Diabrotica balteata Maize seedlings are sprayed with an aqueous emulsion spray mixture comprising 400 ppm of active ingredient and, after the spray coating has dried on, populated with 10 larvae (2nd instar) of Diabrotica balteata and introduced into a plastic container. 6 days later, the percentage reduction in the population (% activity) is determined by comparing the number of dead larvae between the treated and untreated plants.

Myzus persicae = assay: Activity against Myzus persicae (foliar application); conditions: 400 ppm active ingredient, spray on infected pea seedlings, 20°, 3 and 6 days, read-out: percentage reduction in the population (% activity)
Procedure: Activity Against Myzus persicae (Foliar Application) Pea seedlings are infected with Myzus persicae, subsequently sprayed with a spray mixture comprising 400 ppm of active ingredient and then incubated at 20°. 3 and 6 days later, the percentage reduction in the population (% activity) is determined by comparing the number of dead aphids between the treated and untreated plants.

Spodoptera littoralis = assay: Activity against Spodoptera littoralis (sprayed soya plants); conditions: 72 h, 400 ppm active ingredient, sprayed young soya plants, 1st instar caterpillars, 3 days, read-out: percentage reduction in the population and in the feeding damage (% activity)
Procedure: (§1) Activity Against Spodoptera littoralis Young soya plants are sprayed with an aqueous emulsion spray mixture comprising 400 ppm of active ingredient and, after the spray coating has dried on, populated with 10 caterpillars (1st instar) of Spodoptera littoralis and introduced into a plastic container. 3 days later, the percentage reduction in the population and in the feeding damage (% activity) are determined by comparing the number of dead caterpillars and the feeding damage between the treated and untreated plants.

Plutella xylostella = assay: Activity against Plutella xylostella (sprayed cabbage plants); conditions: 72 h, 400 ppm active ingredient, sprayed young cabbage plants, 3rd instar caterpillars, 3 days, read-out: percentage reduction in the population and in the feeding damage (% activity)
Procedure: as §1, with “Plutella xylostella” for “Spodoptera littoralis”, “cabbage” for “soya”, “(3rd” for “(1st”

Heliothis virescens = assay: Activity against Heliothis virescens (foliar application); conditions: 144 h, 400 ppm active ingredient, sprayed young soya plants, 1st instar caterpillars, 6 days, read-out: percentage reduction in the population and in the feeding damage (% activity)
Procedure: as §1, with “Against Heliothis virescens (Foliar Application)” for “Against Spodoptera littoralis”, “of Heliothis virescens” for “of Spodoptera littoralis”, “container. 6” for “container. 3”

Measured: inhibition at 400 ppm

CNC(=O)c1cc2ccccc2c(Cl)c1NC(=O)c1cc(C(F)(F)F)nn1-c1ncccc1Cl [Compound T1.1]
> 80%: all assays above

CNC(=O)c1cc2ccccc2c(Br)c1NC(=O)c1cc(C(F)(F)F)nn1-c1ncccc1Cl [Compound T7.1]
> 80%: all assays above
